Each structure is given as a SMILES string.

In assay [1] the test system is HepG2 cells. The experiment in a line: mitochondrial membrane potential (TMRE fluorescence) in HepG2 cells. It counts as cell-based, human. As to conditions: dicoumarol-treated cells. On the procedure:
For determination of the inner mitochondrial membrane potential (ΔΨm), 20 nM of TMRE (tetramethylrhodamine ethyl ester) as a fluorescent indicator was continuously applied to be loaded on cells. In order to monitor mitochondrial Ca^2+, cells on glass coverslips were loaded with 10 μM Rhod-2 AM via cold loading/warm incubation. In order to monitor cytosolic Ca^2+, cells were co-loaded with 10 μM Fluo-4 AM at 37′C for 30 min. The cells were washed twice with a KB solution, and mounted in a perfusion chamber. Fluorescent imaging was taken using a confocal laser scanning microscope (LSM-510 META, Carl Zeiss) at a magnification of ×200 and ×400, in conjunction with appropriate laser lines and a filter set. Image analysis was carried out using LSM-510 META software (Zeiss). Images for TMRE (red fluorescence), Rhod-2 (red fluorescence) and Fluo-4 (green fluorescence) were obtained using an inverted Zeiss 510META laser-scanning confocal microscope equipped with ×63 numerical aperture, 1.4 oil-immersion planapochromat lens. Green fluorescence and red fluorescence were illuminated with light of 488 nm and 543 nm. Incident light was passed through a 545 nm dichroic mirror and observed via a 500 to 530 nm band-pass (green) filter and a 560 nm long-pass (red) barrier filter.
However, such effects were not observed in HEK293 cells. […]

Assay [2] concerns HepG2 cells. Nature of the assay: calcium influx (Fluo-4) in HepG2 cells. It counts as cell-based, human. As to conditions: dicoumarol 5 μM pretreated 30 min. On the procedure:
Cells were grown on a coverslip in a culture medium for 24 hours, maintained in an RPMI 1640 serum-free medium for 1 hour, and pretreated with a calcium indicator Fluo-4 (5 μM) for 30 min. After pretreatment, the coverslip was mounted on a slide glass. Changes in an intracellular calcium concentration were observed using a fluorescence microscope (Carl Zeiss) for 30 sec, and cells were treated with a candidate compound (e.g. pyran-1,2-naphthoquinone) simultaneously with consecutive imaging of calcium changes using a fluorescence microscope (Carl Zeiss) for 2 sec. […] Changes in the intracellular calcium concentration were observed using a fluorescence microscope (Carl Zeiss) for 30 sec, and cells were treated with pyre-1,2-naphthoquinone (10 μM), followed by continuous shooting of calcium changes using a fluorescence microscope for 2 sec. Using an LSM Image Browser program (Carl Zeiss), 300 images taken for 10 min every 2 seconds were sorted and ordered in a time sequence and plotted on a graph.
For determination of the inner mitochondrial membrane potential (ΔΨm), 20 nM of TMRE (tetramethylrhodamine ethyl ester) as a fluorescent indicator was continuously applied to be loaded on cells. In order to monitor mitochondrial Ca^2+, cells on glass coverslips were loaded with 10 μM Rhod-2 AM via cold loading/warm incubation. In order to monitor cytosolic Ca^2+, cells were co-loaded with 10 μM Fluo-4 AM at 37′C for 30 min. […] Images for TMRE (red fluorescence), Rhod-2 (red fluorescence) and Fluo-4 (green fluorescence) were obtained using an inverted Zeiss 510META laser-scanning confocal microscope equipped with ×63 numerical aperture, 1.4 oil-immersion planapochromat lens. Green fluorescence and red fluorescence were illuminated with light of 488 nm and 543 nm. […]
Cells were cultured for 24 hours and then pre-treated with Fluo-4 for 30 min. Cells immobilized on a coverslip were transferred to a slide glass and treated with pyrano-1,2-naphthoquinone (10 μM), and at the same time images were taken every 2 seconds for 10 min using a fluorescence microscope.

Turning to `O=c1oc2ccccc2c(O)c1Cc1c(O)c2ccccc2oc1=O` [dicoumarol, reference compound], in the assay with HepG2 cells [1], the “effects of βL on ΔΨm in dicoumarol-treated cells” value was “did not exhibit such effects”. Moreover, in the assay with HepG2 cells [2], the “effect on calcium influx by pyrano-1,2-naphthoquinone” value is “inhibited”.
